Reference: patent US20130273183A1, “2-Pyrimidine Thioesters and Thiocarbonates as Skin Brightening Agents” (EASTMAN CHEMICAL COMPANY, priority 2012, published 2013)
Marks after values point to notes of the source that are not given here.

Legend:
[1] = system: B16-F10 murine melanoma cells; test: Melanogenesis inhibition assay (melanin content, absorbance at 450 nm); format: cell-based; settings: Mus musculus, 72 h, read-out: Melanogenesis % of control; for activity at 500 µM: 0.5 mmol/L (footnote *); for activity at 100 µM: 0.1 mmol/L; for activity at 1000 µM: 1.0 mmol/L
Experimental: Melanocytes (B16-F10/CRL-6475 murine melanoma cells, purchased from ATCC) were cultured in Dulbecco's Modified Eagle's Medium (DMEM)/Ham's F-12 50:50 mix with L-glutamine w/out phenol red/10% (v/v) newborn calf serum/1% (v/v) 100× Invitrogen Cat #15240-062 Antibiotic-Antimycotic at 37° C. (i.e., the growth medium) in a humidified atmosphere with 5% CO2. The cells were seeded into 12.5 cm^2 tissue culture flasks at a concentration of 1.0×10^5 cells/mL. A 3-mL cell suspension (seed medium) was added to each flask. The test compounds were dissolved in dimethyl sulfoxide (DMSO) at a concentration of 0.5 M. This 0.5 M stock was used to prepare various concentrations of the test compounds in growth medium, with the final concentration of DMSO at 0.2% by weight. Growth medium with diluted test compound is referred to as the dose medium. The controls were treated in the same manner, but without the test compound. After 24 hrs of incubation, the seed medium was replaced with 3 mL of dose medium (growth medium with various concentrations of test samples or control compounds). The dose medium was […] day, and the incubation continued for an additional 2 days. The dose medium was removed. The cells were dissolved in 1 mL of 1 N NaOH during incubation at 80° C. for 10 min. Samples of extracted melanin were transferred to a 96-well plate, and the absorbance was read at 450 nm. Each experiment was repeated three times. Kojic acid, arbutin, and hydroquinone were used as positive controls.

[2] = system: B16-F10 murine melanoma cells; test: Cell viability assay (MTT); format: cell-based
Experimental: After incubating the melanocytes with test samples or control compounds as mentioned above, 330 μL of a MTT solution (5 mg/mL MTT in standard medium with no added serum or antibiotic) was added. […] After orbital shaking for 10 min at room temperature, 1 mL of the contents of each flask was transferred to microfuge tubes and centrifuged for 10 min. 200 μL of each tube were then transferred to a 96-well plate, and the relative extent of MTT reduction was determined based on the absorbance at 590 nm. […] Kojic acid, arbutin, and hydroquinone were used as positive controls.

[3] = 0.5 mmol/L (footnote *), MTT, B16-F10 cells

SMILES | activity at 500 µM [1] | activity at 100 µM [1] | activity at 1000 µM [1] | Cell Viability % of control ([2]; 0.1 mmol/L, MTT, B16-F10 cells) | Cell Viability % of control ([2]; 1.0 mmol/L, MTT, B16-F10 cells) | other results
Sc1ncccn1 [2-Mercapto-Pyrimidine, 2-Mercaptopyrimidine, reference compound] | 35% |  |  |  |  | activity at 250 µM ([1]; 0.25 mmol/L): 42%; Cell Viability % of control ([2]; 0.25 mmol/L, MTT, B16-F10 cells, no replication): 81** % of control; Cell Viability % of control [2, 3]: 68* % of control
OC[C@H]1O[C@@H](Oc2ccc(O)cc2)[C@H](O)[C@@H](O)[C@@H]1O [Arbutin, arbutin, reference compound] |  | 92% | 83% | 125 % of control | 134 % of control | 
COC(=O)CSc1ncccn1 [Comparative Example 1, Methyl 2-(pyrimidin-2′-ylthio)acetate, reference compound] |  | 115% | 98% | 114 % of control | 117 % of control | 
COC(=O)CCSc1ncccn1 [Comparative Example 2, Methyl 3-(Pyrimidin-2′-ylthio)propionate, reference compound] | 96% | 98% |  | 88 % of control |  | Cell Viability % of control [2, 3]: 84* % of control
CC(=O)Sc1ncccn1 [Example 1, Pyrimidin-2-yl Thiolacetate] |  | 71% | 33% | 100 % of control | 6.6 % of control | 
CCC(=O)Sc1ncccn1 [Example 2, Pyrimidin-2-yl Thiolpropionate] |  | 67% | 36% | 113 % of control | 13.6 % of control | 
CCOC(=O)Sc1ncccn1 [Example 3, O-Ethyl-5-pyrimidin-2-yl Monothiolcarbonate] |  | 81% | 36% | 87 % of control | 32 % of control | 
CC(C)(C)C(=O)Sc1ncccn1 [Example 5, Pyrimidin-2′-yl 2,2-Dimethylpropanethioate] |  | 66% | 28% | 91 % of control | 7 % of control | 
O=C(Sc1ncccn1)c1ccccc1 [Example 6, Pyrimidin-2-yl Thiolbenzoate] |  | 69% | 39% | 91 % of control | 69 % of control | 
O=C(Sc1ncccn1)c1cccnc1 [Example 7, S-Pyrimidin-2′-yl Pyridine-3-carbothioate] |  | 72% | 27% | 101 % of control | 3.5 % of control | 
O=C(Sc1ncccn1)c1ccncc1 [Example 8, S-Pyrimidin-2′-yl Pyridine-4-carbothioate] | 38% | 70% |  | 92 % of control |  | Cell Viability % of control [2, 3]: 36* % of control
Oc1ccc(O)cc1 [Hydroquinone, hydroquinone, reference compound] | 33% |  |  |  |  | Cell Viability % of control ([2]; mouse, 0.5 mmol/L): 3* % of control
O=c1cc(CO)occ1O [Kojic acid, reference compound] |  | 94% | 86% |  |  | Cell Viability % of control ([2]; mouse, 0.1 mmol/L): 116 % of control; Cell Viability % of control ([2]; mouse, 1 mmol/L): 92 % of control
